Values after ≈ are worked out from the molar mass of the structure shown. Values joined by “and” are separate entries in the source; they are usually repeats but may differ in a detail not shown here. Identical values can stand only once.
How the values were obtained:
[1] = system: S. aureus 8325-4; experiment: microbe, parasite or virus in culture; assay type: cell-based, Staphylococcus aureus; details: for MBC: Staphylococcus aureus, 83254, 24 h, read-out: Minimal bactericidal concentration MBC
[2] = system: S. aureus 8325-4; experiment: microbe, parasite or virus in culture; assay type: cell-based; details: Staphylococcus aureus, 83254, Erythrocyte, in Ovis aries, read-out: IC50 (antihemolytic)
[3] = system: S. aureus NCTC 5655; experiment: microbe, parasite or virus in culture; assay type: cell-based, Staphylococcus aureus; details: for MBC: Staphylococcus aureus, NCTC5655, 24 h, read-out: Minimal bactericidal concentration MBC
[4] = biological target: T1, S. aureus α-hemolysin (αHL) (Staphylococcus aureus, UniProt P09616); experiment: cell-based
T1 sequence (P09616 27-319 limits assumed): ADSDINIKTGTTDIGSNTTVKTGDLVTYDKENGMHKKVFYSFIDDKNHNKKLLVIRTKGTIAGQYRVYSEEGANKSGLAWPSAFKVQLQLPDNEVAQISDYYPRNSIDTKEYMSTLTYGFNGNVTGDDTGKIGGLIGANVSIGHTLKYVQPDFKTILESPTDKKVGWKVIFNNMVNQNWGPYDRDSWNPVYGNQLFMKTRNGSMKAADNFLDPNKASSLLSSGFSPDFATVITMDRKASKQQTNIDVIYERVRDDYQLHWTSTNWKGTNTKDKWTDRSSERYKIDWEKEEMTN

[5] = system: S. aureus NCTC 5655; experiment: microbe, parasite or virus in culture; assay type: cell-based; details: Staphylococcus aureus, NCTC5655, Erythrocyte, in Ovis aries, read-out: IC50 (antihemolytic)
[6] = system: erythrocyte membrane; assay type: cell-based, sheep
[7] = biological target: T1, S. aureus α-hemolysin (αHL); details: sheep

Row | Structure (SMILES) | MBC [1] [µM] | IC50 [2] [µM] | MBC [3] [µM] | IC50 [4] [µM] | IC50 [5] [µM] | order parameter S/S0 [6] | increase of IC50 after washing of erythrocytes [7] | Minimal bactericidal concentration MBC [1] [µM] | Minimal bactericidal concentration MBC [3] [µM]
1 | O=C(OCC1OC(OC(=O)c2cc(O)c(O)c(O)c2)C(OC(=O)c2cc(O)c(O)c(O)c2)C(OC(=O)c2cc(O)c(O)c(OC(=O)c3cc(O)c(O)c(O)c3)c2)C1OC(=O)c1cc(O)c(O)c(O)c1)c1cc(O)c(O)c(OC(=O)c2cc(O)c(O)c(O)c2)c1 [Compound T1, 3,6-bis-O-di-O-galloyl-1,2,4-tri-O-galloyl-β-D-glucose] | 50 (≈ 62.2 µg/mL) | 8.7 ± 0.81 | 25 (≈ 31.1 µg/mL) | 2.94 ± 1.45 | 7.26 ± 0.29 | – | – | – | –
2 | O=C(OCC1OC(OC(=O)c2cc(O)c(O)c(O)c2)C(OC(=O)c2cc(O)c(O)c(O)c2)C(OC(=O)c2cc(O)c(O)c(O)c2)C1OC(=O)c1cc(O)c(O)c(O)c1)c1cc(O)c(O)c(O)c1 [Compound T2, 1,2,3,4,5-penta-O-galloyl-β-D-glucose] | 75 (≈ 70.6 µg/mL) | 22.4 ± 2.8 | 50 (≈ 47 µg/mL) | 3.52 ± 1.37 | 13 ± 1.18 | 1.267 ± 0.0398 and 0.662 ± 0.072 | – | – | –
3 | O=C(OC1C(O)C(CO)OC2OC(=O)c3cc(Oc4c(C(=O)O)cc(O)c(O)c4O)c(O)c(O)c3-c3c(cc(O)c(O)c3O)C(=O)OC21)c1cc(O)c(O)c(O)c1 [Compound T3, 3-O-galloyl-1,2-valoneoyl-β-D-glucose] | 100 (≈ 80.3 µg/mL) | 52.2 ± 1.2 | 100 (≈ 80.3 µg/mL) | 27.5 ± 1.06 | 90.6 ± 22.7 | 0.947 ± 0.028 and 0.911 ± 0.042 | approximately 40 fold | – | –
4 | O=C(OC1OC2COC(=O)c3cc(Oc4c(C(=O)O)cc(O)c(O)c4O)c(O)c(O)c3-c3c(cc(O)c(O)c3O)C(=O)OC2C(O)C1OC(=O)c1cc(O)c(O)c(O)c1)c1cc(O)c(O)c(O)c1 [Compound T4, 1,2-di-O-galloyl-4,6-valoneoyl-β-D-glucose] | 100 (≈ 95.5 µg/mL) | 60.4 ± 3.3 | 100 (≈ 95.5 µg/mL) | 14.5 ± 1.1 | 59.5 ± 9.6 | 1.074 ± 0.059 and 0.885 ± 0.073 | approximately 40 fold | 75 (≈ 71.6 µg/mL) | 75 (≈ 71.6 µg/mL)
